Source: US20250098679A1, “HERBICIDAL PYRIDONE DERIVATIVES” (SYNGENTA CROP PROTECTION AG, priority 2021, published 2025)

Experiments:
Format in all cases: in vivo
Settings in all cases: evaluated after 13 days
[1] = system: Echinochloa crus-galli (ECHCG); test: Post-emergence Test, Echinochloa crus-galli (ECHCG); parameters: key to percentage damage caused to the plant, ECHCG (five-point scale): 5=81-100%, 4=61-80%, 3=41-60%, 2=21-40%, 1=0-20% damage
Protocol: (§1) Seeds of a variety of test species are sown in standard soil in pots (Setaria faberi (SETFA), Echinochloa crus-galli (ECHCG), Zea mays (ZEAMX), Ipomoea hederacea (IPOHE), Amaranthus palmeri (AMAPA), Amaranthus retoflexus (AMARE)). After 8 days cultivation under controlled conditions in a glasshouse (at 24° C./16° C., day/night; 14 hours light; 65% humidity), the plants are sprayed with an aqueous spray solution derived from the formulation of the technical active ingredient in acetone/water (50:50) solution containing 0.5% Tween 20 (polyoxyethelyene sorbitan monolaurate, CAS RN 9005-64-5). Compounds are applied at 1000 g/ha unless otherwise stated. The test plants are then grown in a glasshouse under controlled conditions in a glasshouse (at 24° C./16° C., day/night; 14 hours light; 65% humidity) and watered twice daily. After 13 days the test is evaluated for the percentage damage caused to the plant. The biological activities are shown in the following table on a five-point scale (5=81-100%; 4=61-80%; 3=41-60%; 2=21-40%; 1=0-20%; -=not tested).

[2] = system: Zea mays (ZEAMX); test: Post-emergence Test, Zea mays (ZEAMX); parameters: key to percentage damage caused to the plant, ZEAMX (five-point scale): 5=81-100%, 4=61-80%, 3=41-60%, 2=21-40%, 1=0-20% damage
Protocol: as §1

[3] = system: Setaria faberi (SETFA); test: Post-emergence Test, Setaria faberi (SETFA); parameters: key to percentage damage caused to the plant, SETFA (five-point scale): 5=81-100%, 4=61-80%, 3=41-60%, 2=21-40%, 1=0-20% damage
Protocol: as §1

[4] = system: Amaranthus retoflexus (AMARE); test: Post-emergence Test, Amaranthus retoflexus (AMARE); parameters: key to percentage damage caused to the plant, AMARE (five-point scale): 5=81-100%, 4=61-80%, 3=41-60%, 2=21-40%, 1=0-20% damage
Protocol: as §1

[5] = system: Amaranthus palmeri (AMAPA); test: Post-emergence Test, Amaranthus palmeri (AMAPA); parameters: key: 5=81-100%, 4=61-80%, 3=41-60%, 2=21-40%, 1=0-20% damage
Protocol: as §1

[6] = system: Ipomoea hederacea (IPOHE); test: Post-emergence Test, Ipomoea hederacea (IPOHE); parameters: key to percentage damage caused to the plant, IPOHE (five-point scale): 5=81-100%, 4=61-80%, 3=41-60%, 2=21-40%, 1=0-20% damage
Protocol: as §1

| Structure (SMILES) | percentage damage caused to the plant, ECHCG (five-point scale) ([1]; 250 g/Ha) | percentage damage caused to the plant, ECHCG (five-point scale) ([1]; 1000 g/ha) | percentage damage caused to the plant, ZEAMX (five-point scale) ([2]; 250 g/Ha) | percentage damage caused to the plant, ZEAMX (five-point scale) ([2]; 1000 g/ha) | percentage damage caused to the plant, SETFA (five-point scale) ([3]; 250 g/Ha) | percentage damage caused to the plant, SETFA (five-point scale) ([3]; 1000 g/ha) | percentage damage caused to the plant, AMARE (five-point scale) ([4]; 250 g/Ha) | percentage damage caused to the plant, AMARE (five-point scale) ([4]; 1000 g/ha) | percentage damage caused to the plant, AMAPA (five-point scale) ([5]; 250 g/Ha) | percentage damage caused to the plant, AMAPA (five-point scale) ([5]; 1000 g/ha) | percentage damage caused to the plant, IPOHE (five-point scale) ([6]; 250 g/Ha) | percentage damage caused to the plant, IPOHE (five-point scale) ([6]; 1000 g/ha) | further results |
| --- | --- | --- | --- | --- | --- | --- | --- | --- | --- | --- | --- | --- | --- |
| CCOC(=O)c1c(-c2ccc(Cl)c(Cl)c2)n(CC)c(Cn2ccnc2)c(Br)c1=O [Compound 24, ethyl 5-bromo-2-(3,4-dichlorophenyl)-1-ethyl-6-(imidazol-1-ylmethyl)-4-oxo-pyridine-3-carboxylate] | 1 (1=0-20%) | 1 (1=0-20%) | 1 (1=0-20%) | 3 (3=41-60%) | 1 (1=0-20%) | 1 (1=0-20%) | 1 (1=0-20%) | 1 (1=0-20%) | 1 (1=0-20%) | 1 (1=0-20%) | 2 (2=21-40%) | 1 (1=0-20%) |  |
| CCn1c(Cn2ccc(NC(C)=O)n2)cc(=O)c(C(=O)O)c1-c1ccc(Cl)c(Cl)c1 [Compound 154, 6-[(3-acetamidopyrazol-1-yl)methyl]-2-(3,4-dichlorophenyl)-1-ethyl-4-oxo-pyridine-3-carboxylic acid] | 0 | 0 | 1 (1=0-20%) | 1 (1=0-20%) | 0 | 0 | 0 | 0 | 0 | 0 | 0 | 0 |  |
| CCn1c(Cn2cnc(Cl)c2Cl)cc(=O)c(C(=O)O)c1-c1ccc(Cl)c(Cl)c1 [Compound 126, 6-[(4,5-dichloroimidazol-1-yl)methyl]-2-(3,4-dichlorophenyl)-1-ethyl-4-oxo-pyridine-3-carboxylic acid] | 1 (1=0-20%) | 0 | 0 | 1 (1=0-20%) | 0 | 0 | 0 | 0 | 0 | 1 (1=0-20%) | 0 | 0 |  |
| CCn1c(Cn2nc3ccccc3n2)cc(=O)c(C(=O)O)c1-c1ccc(Cl)c(Cl)c1 [Compound 55, 6-(benzotriazol-2-ylmethyl)-2-(3,4-dichlorophenyl)-1-ethyl-4-oxo-pyridine-3-carboxylic acid] | 2 (2=21-40%) | 2 (2=21-40%) | 0 | 1 (1=0-20%) | 0 | 1 (1=0-20%) | 1 (1=0-20%) | 0 | 1 (1=0-20%) | 3 (3=41-60%) | 0 | 3 (3=41-60%) |  |
| CCOC(=O)c1nccn1Cc1cc(=O)c(C(=O)O)c(-c2ccc(Cl)c(Cl)c2)n1CC [Compound 110, 2-(3,4-dichlorophenyl)-6-[(2-ethoxycarbonylimidazol-1-yl)methyl]-1-ethyl-4-oxo-pyridine-3-carboxylic acid] |  | 1 (1=0-20%) |  | 0 |  | 1 (1=0-20%) |  | 0 |  | 0 |  | 1 (1=0-20%) |  |
| CCn1c(Cn2nc(C)cc2OC(C)(C)C)cc(=O)c(C(=O)O)c1-c1ccc(Cl)c(Cl)c1 [Compound 152, 6-[(5-tert-butoxy-3-methyl-pyrazol-1-yl)methyl]-2-(3,4-dichlorophenyl)-1-ethyl-4-oxo-pyridine-3-carboxylic acid] |  | 1 (1=0-20%) |  | 1 (1=0-20%) |  | 0 |  | 1 (1=0-20%) |  | 1 (1=0-20%) |  | 0 |  |
| CCn1c(Cn2ccc(-c3ccncc3)n2)cc(=O)c(C(=O)O)c1-c1ccc(Cl)c(Cl)c1 [Compound 195, 2-(3,4-dichlorophenyl)-1-ethyl-4-oxo-6-[[3-(4-pyridyl)pyrazol-1-yl]methyl]pyridine-3-carboxylic acid] |  |  |  |  |  |  |  |  |  |  |  |  | Post-emergence Test ECHCG, percentage damage caused to the plant (five-point scale) ([1]; 250 g/Ha (*)): 1 (1=0-20%); Post-emergence Test ZEAMX, percentage damage caused to the plant (five-point scale) ([2]; 250 g/Ha (*)): 0; Post-emergence Test ZEAMX, percentage damage caused to the plant (five-point scale) ([2]; 1000 g/ha): 1 (1=0-20%); Post-emergence Test SETFA, percentage damage caused to the plant (five-point scale) ([3]; 1000 g/ha): 2 (2=21-40%); Post-emergence Test AMARE, percentage damage caused to the plant (five-point scale) ([4]; 250 g/Ha (*)): 0; Post-emergence Test AMARE, percentage damage caused to the plant (five-point scale) ([4]; 1000 g/ha): 1 (1=0-20%); Post-emergence Test AMAPA, percentage damage caused to the plant (five-point scale) ([5]; 250 g/Ha (*)): 0; Post-emergence Test AMAPA, percentage damage caused to the plant (five-point scale) ([5]; 1000 g/ha): 0; Post-emergence Test IPOHE, percentage damage caused to the plant (five-point scale) ([6]; 250 g/Ha (*)): 0; Post-emergence Test IPOHE, percentage damage caused to the plant (five-point scale) ([6]; 1000 g/ha): 1 (1=0-20%) |
| CCn1c(Cn2ncc3ccccc32)cc(=O)c(C(=O)O)c1-c1ccc(Cl)c(Cl)c1 [Compound 105, 2-(3,4-dichlorophenyl)-1-ethyl-6-[indazol-1-ylmethyl)-4-oxo-pyridine-3-carboxylic acid] | 3 (3=41-60%) | 3 (3=41-60%) | 0 | 1 (1=0-20%) | 0 | 2 (2=21-40%) | 0 | 2 (2=21-40%) | 0 | 2 (2=21-40%) | 0 | 4 (4=61-80%) |  |
| CCn1c(Cn2ccc(O)n2)cc(=O)c(C(=O)O)c1-c1ccc(Cl)c(Cl)c1 [Compound 167, 2-(3,4-dichlorophenyl)-1-ethyl-6-[(3-hydroxypyrazol-1-yl)methyl]-4-oxo-pyridine-3-carboxylic acid] |  | 0 |  | 0 |  | 0 |  | 0 |  | 1 (1=0-20%) |  | 0 |  |
| CCn1c(Cn2nc3c(c2C(F)F)COCC3)cc(=O)c(C(=O)O)c1-c1ccc(Cl)c(Cl)c1 [Compound 97, 2-(3,4-dichlorophenyl)-6-[[3-(difluoromethyl)-6,7-dihydro-4H-pyrano[4,3-c]pyrazol-2-yl]methyl]-1-ethyl-4-oxo-pyridine-3-carboxylic acid] | 1 (1=0-20%) |  | 1 (1=0-20%) |  | 0 |  | 1 (1=0-20%) |  | 1 (1=0-20%) |  | 0 |  |  |
